biological target: MAPK14 (human) (UniProt Q16539); assay: Inhibition of MAPK14 Kinase Activity
Sequence (Q16539 whole entry, looked up): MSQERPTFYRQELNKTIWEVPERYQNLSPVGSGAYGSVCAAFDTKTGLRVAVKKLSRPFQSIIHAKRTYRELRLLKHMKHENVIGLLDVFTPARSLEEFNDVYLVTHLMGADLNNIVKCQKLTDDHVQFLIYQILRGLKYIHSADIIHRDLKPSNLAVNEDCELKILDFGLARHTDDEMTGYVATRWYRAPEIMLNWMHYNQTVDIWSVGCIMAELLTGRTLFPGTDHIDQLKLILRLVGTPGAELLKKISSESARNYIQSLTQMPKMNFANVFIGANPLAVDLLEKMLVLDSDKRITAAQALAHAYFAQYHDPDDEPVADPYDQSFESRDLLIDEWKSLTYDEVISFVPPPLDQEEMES

Row | SMILES | IC50
1 | CC(C)NC(=O)c1csc(-c2oc(CN3CCN(C(=O)C=O)CC3)nc2-c2ccc(F)cc2)n1 | ≤ 1 µM
2 | Cc1nc(-c2ccc(F)cc2)c(-c2nc(C(=O)NCc3cccnc3)cs2)s1 | ≤ 1 µM
3 | CC(C)NC(=O)c1csc(-c2oc(CN3CCN(C(=O)c4cnc(O)c(Cl)c4)CC3)nc2-c2ccc(F)cc2)n1 | ≤ 1 µM
4 | CCN(CC)c1ccc(C(=O)NCc2nc(-c3ccc(F)cc3)c(-c3nc(C(=O)NC(C)C)cs3)o2)cc1 | ≤ 1 µM
5 | CC(C)NC(=O)c1csc(-c2oc(CNC(=O)c3c4ccccc4cc4ccccc34)nc2-c2ccc(F)cc2)n1 | ≤ 1 µM
6 | CC(C)NC(=O)c1csc(-c2oc(CN3CCN(C(=O)C(C)(C)C)CC3)nc2-c2ccc(F)cc2)n1 | ≤ 1 µM
7 | Cc1cccc(C(=O)N2CCN(Cc3nc(-c4ccc(F)cc4)c(-c4nc(C(=O)NC(C)C)cs4)o3)CC2)c1O | ≤ 1 µM
8 | CNC(=O)c1csc(-c2sc(C)nc2-c2ccc(F)cc2)n1 | ≤ 1 µM
9 | Cc1cc(C(=O)N2CCN(Cc3nc(-c4ccc(F)cc4)c(-c4nc(C(=O)NC(C)C)cs4)o3)CC2)n[nH]1 | ≤ 1 µM
10 | CCOC(=O)CC(=O)NCc1nc(-c2ccc(F)cc2)c(-c2nc(C(=O)NC(C)C)cs2)o1 | ≤ 1 µM
11 | Cc1nc(-c2ccc(F)cc2)c(-c2nc(C(=O)NC(C)CO)cs2)s1 (stereo not given) | ≤ 1 µM
12 | Cc1nc(-c2ccc(F)cc2)c(-c2nc(C(=O)NCCc3ccccc3Cl)cs2)s1 | ≤ 1 µM
13 | CC(C)NC(=O)c1csc(-c2oc(CBr)nc2-c2ccc(F)cc2)n1 | ≤ 1 µM
14 | CC(C)NC(=O)c1csc(-c2oc(CNC(=O)CCc3nc4ccccc4[nH]3)nc2-c2ccc(F)cc2)n1 | ≤ 1 µM
15 | Cc1onc(-c2ccc(F)cc2)c1-c1nc(C(=O)NC(C)C)cs1 | ≤ 1 µM
16 | CC(C)NC(=O)c1csc(-c2oc(CNC(=O)c3cc(Cl)ccc3[N+](=O)[O-])nc2-c2ccc(F)cc2)n1 | ≤ 1 µM
17 | COCCNC(=O)c1csc(-c2c(-c3ccc(F)cc3)n[nH]c2C2CCNCC2)n1 | ≤ 1 µM
18 | Cc1nc(-c2ccc(F)cc2)c(-c2nc(C(=O)NC3CCCC3)cs2)s1 | ≤ 1 µM

Row | SMILES | IC50
19 | CC(=O)c1cccc(NCc2onc(-c3ccc(F)cc3)c2-c2nc(C(=O)NC(C)C)cs2)c1 | ≤ 1 µM
20 | Cc1nc(-c2ccc(F)cc2)c(-c2nc(C(=O)NCCN3CCCC3)cs2)s1 | ≤ 1 µM
21 | COc1cccc(CNC(=O)c2csc(-c3sc(C)nc3-c3ccc(F)cc3)n2)c1 | ≤ 1 µM
22 | Cc1nc(-c2ccc(F)cc2)c(-c2nc(C(=O)NCCC(C)C)cs2)s1 | ≤ 1 µM
23 | CC(C)NC(=O)c1csc(-c2oc(CNC(=O)C(C)c3ccc(O)cc3)nc2-c2ccc(F)cc2)n1 (stereo not given) | ≤ 1 µM
24 | CC(C)NC(=O)c1csc(-c2oc(CNC(=O)c3ccncc3)nc2-c2ccc(F)cc2)n1 | ≤ 1 µM
25 | CC(C)NC(=O)c1csc(-c2c(-c3ccc(F)cc3)noc2CNC(=O)CC#N)n1 | ≤ 1 µM
26 | CC(C)NC(=O)c1csc(-c2c(-c3ccc(F)cc3)n[nH]c2C2CCN(C(=O)c3ccnc(Cl)c3)CC2)n1 | ≤ 1 µM
27 | CC(C)NC(=O)c1csc(-c2oc(CN3CCN(C(=O)c4cnc[nH]4)CC3)nc2-c2ccc(F)cc2)n1 | ≤ 1 µM
28 | CC(=O)Nc1ccc(NC(=O)c2csc(-c3sc(C)nc3-c3ccc(F)cc3)n2)cc1 | ≤ 1 µM
29 | CC(C)NC(=O)c1csc(-c2oc(CN3CCN(C(=O)C4CCc5ccccc54)CC3)nc2-c2ccc(F)cc2)n1 (stereo not given) | ≤ 1 µM
30 | CCN(CC)CCNC(=O)c1csc(-c2sc(C)nc2-c2ccc(F)cc2)n1 | ≤ 1 µM
31 | Cc1ccc(O)c(C(=O)N2CCN(Cc3nc(-c4ccc(F)cc4)c(-c4nc(C(=O)NC(C)C)cs4)o3)CC2)c1 | ≤ 1 µM
32 | CC(C)NC(=O)c1csc(-c2oc(CNC(=O)c3cc(Cl)ccc3Cl)nc2-c2ccc(F)cc2)n1 | ≤ 1 µM
33 | Cc1onc(-c2ccc(Cl)cc2)c1-c1ccn(C(=O)NCC(C)C)n1 | ≤ 1 µM
34 | CC(C)NC(=O)c1csc(-c2c(-c3ccc(F)cc3)n[nH]c2C2CCN(C(=O)C(C(C)C)N(C)C(=O)OC(C)(C)C)CC2)n1 (stereo not given) | ≤ 1 µM
35 | CC(C)NC(=O)c1csc(-c2oc(CNC(=O)c3ccccc3[N+](=O)[O-])nc2-c2ccc(F)cc2)n1 | ≤ 1 µM

From the Kinase Knowledgebase extract (Sharma et al. 2016)
